Assay results taken from ChEMBL document CHEMBL1201861, “Genomics of Drug Sensitity in Cancer screening data, Wellcome Trust Sanger Institute”.

Tests used:
Assay in all cases: cells
Conditions in all cases: Homo sapiens
KE-37 = type: functional, cell-based;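 also: growth inhibition of KE-37 cells, read out with a cell viability assay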
Description: SANGER: Inhibition of human KE-37 cell growth in a cell viability assay.

KARPAS-299 = type: functional, cell-based
Description: SANGER: Inhibition of human KARPAS-299 cell growth in a cell viability assay.

GI-ME-N = type: functional, cell-based;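 also: growth inhibition of human GI-ME-N cells, read out with a cell viability assay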
Description: SANGER: Inhibition of human GI-ME-N cell growth in a cell viability assay.

L-428 = type: functional, cell-based
Description: SANGER: Inhibition of human L-428 cell growth in a cell viability assay.

C2BBe1 = type: functional, cell-based;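 also: growth inhibition of C2BBe1 cells, read out through a viability assay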
Description: SANGER: Inhibition of human C2BBe1 cell growth in a cell viability assay.

NH-12 = type: functional, cell-based;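 also: growth inhibition of NH-12 cells, read out with a cell viability assay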
Description: SANGER: Inhibition of human NH-12 cell growth in a cell viability assay.

MPP-89 = type: functional, cell-based;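 also: growth inhibition of human MPP-89 cells, read out with a cell viability assay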
Description: SANGER: Inhibition of human MPP-89 cell growth in a cell viability assay.

DSH1 = type: functional, cell-based;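 also: growth inhibition of human DSH1 cells, measured with a cell viability readout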
Description: SANGER: Inhibition of human DSH1 cell growth in a cell viability assay.

A498 = type: functional, cell-based;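 also: growth inhibition of human A498 cells, read out with a cell viability assay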
Description: SANGER: Inhibition of human A498 cell growth in a cell viability assay.

EKVX = type: functional, cell-based;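 also: growth inhibition of human EKVX cells, read out with a cell viability assay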
Description: SANGER: Inhibition of human EKVX cell growth in a cell viability assay.

LB1047-RCC = type: functional, cell-based;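 also: inhibition of cell growth, determined with a cell viability assay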
Description: SANGER: Inhibition of human LB1047-RCC cell growth in a cell viability assay.

NCI-H1355 = type: functional, cell-based;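 also: growth inhibition of human NCI-H1355 cells, read out by a cell viability assay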
Description: SANGER: Inhibition of human NCI-H1355 cell growth in a cell viability assay.

NCI-H510A = type: functional, cell-based;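 also: growth inhibition of NCI-H510A cells, read out with a cell viability assay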
Description: SANGER: Inhibition of human NCI-H510A cell growth in a cell viability assay.

EW-3 = type: functional, cell-based;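 also: cell viability assay read-out, IC50 reflects inhibition of growth of the EW-3 cells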
Description: SANGER: Inhibition of human EW-3 cell growth in a cell viability assay.

BB30-HNC = type: functional, cell-based;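 also: growth inhibition of the cultured cell line, read out by a cell viability assay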
Description: SANGER: Inhibition of human BB30-HNC cell growth in a cell viability assay.

RH-1 = type: functional, cell-based;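 also: growth inhibition of human RH-1 cells, read out with a cell viability assay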
Description: SANGER: Inhibition of human RH-1 cell growth in a cell viability assay.

SK-UT-1 = type: functional, cell-based;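 also: growth inhibition of SK-UT-1 cells, measured by a cell viability assay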
Description: SANGER: Inhibition of human SK-UT-1 cell growth in a cell viability assay.

D-263MG = type: functional, cell-based
Description: SANGER: Inhibition of human D-263MG cell growth in a cell viability assay.

NKM-1 = type: functional, cell-based;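 also: growth inhibition of NKM-1 cells, read out with a cell viability assay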
Description: SANGER: Inhibition of human NKM-1 cell growth in a cell viability assay.

EW-18 = type: functional, cell-based;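 also: growth inhibition of EW-18 cells, read out by a cell viability assay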
Description: SANGER: Inhibition of human EW-18 cell growth in a cell viability assay.

D283 Med = type: functional, cell-based
Description: SANGER: Inhibition of human D-283MED cell growth in a cell viability assay.

COLO-320-HSR = type: functional, cell-based;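 also: growth inhibition of COLO-320-HSR cells, determined with a cell viability assay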
Description: SANGER: Inhibition of human COLO-320-HSR cell growth in a cell viability assay.

NCI-H1650 = type: functional, cell-based;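 also: growth inhibition of human NCI-H1650 cells measured by a cell viability assay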
Description: SANGER: Inhibition of human NCI-H1650 cell growth in a cell viability assay.

Lu-65 = type: functional, cell-based;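 also: growth inhibition of Lu-65 cancer cells, read out by a cell viability assay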
Description: SANGER: Inhibition of human LU-65 cell growth in a cell viability assay.

TE-8 = type: functional, cell-based;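 also: growth inhibition of TE-8 cells, measured with a cell viability readout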
Description: SANGER: Inhibition of human TE-8 cell growth in a cell viability assay.

NB10 = type: functional, cell-based;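 also: growth inhibition of NB10 cells, read out by a cell viability assay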
Description: SANGER: Inhibition of human NB10 cell growth in a cell viability assay.

LB771-HNC = type: functional, cell-based;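 also: growth inhibition of LB771-HNC human cells, read out with a cell viability assay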
Description: SANGER: Inhibition of human LB771-HNC cell growth in a cell viability assay.

IST-MES1 = type: functional, cell-based;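 also: growth inhibition of IST-MES1 cells, measured with a cell viability assay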
Description: SANGER: Inhibition of human IST-MES1 cell growth in a cell viability assay.

LU-134-A = type: functional, cell-based
Description: SANGER: Inhibition of human LU-134-A cell growth in a cell viability assay.

COLO-829 = type: functional, cell-based
Description: SANGER: Inhibition of human COLO-829 cell growth in a cell viability assay.

NCI-H1092 = type: functional, cell-based;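 also: cell growth inhibition measured with a cell viability assay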
Description: SANGER: Inhibition of human NCI-H1092 cell growth in a cell viability assay.

JAR = type: functional, cell-based;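 also: growth inhibition of human JAR cells determined with a cell viability assay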
Description: SANGER: Inhibition of human JAR cell growth in a cell viability assay.

LB373-MEL-D = type: functional, cell-based;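 also: growth inhibition of the cell line, read out in a cell viability assay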
Description: SANGER: Inhibition of human LB373-MEL-D cell growth in a cell viability assay.

SHP77 = type: functional, cell-based, SHP-77;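 also: growth inhibition of human SHP-77 cells measured by a cell viability assay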
Description: SANGER: Inhibition of human SHP-77 cell growth in a cell viability assay.

MSTO-211H = type: functional, cell-based
Description: SANGER: Inhibition of human MSTO-211H cell growth in a cell viability assay.

EW-11 = type: functional, cell-based;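 also: growth inhibition of human EW-11 cells, measured with a cell viability assay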
Description: SANGER: Inhibition of human EW-11 cell growth in a cell viability assay.

COLO-800 = type: functional, cell-based;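 also: growth inhibition of COLO-800 cells, read out with a cell viability assay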
Description: SANGER: Inhibition of human COLO-800 cell growth in a cell viability assay.

BB49-HNC = type: functional, cell-based;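 also: cell viability assay read-out, reported as inhibition of BB49-HNC cell growth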
Description: SANGER: Inhibition of human BB49-HNC cell growth in a cell viability assay.

LS-411N = type: functional, cell-based
HuTu80 = type: functional, cell-based, HUTU-80;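 also: growth inhibition of HuTu80 human cells, determined with a cell viability readout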
Description: SANGER: Inhibition of human HUTU-80 cell growth in a cell viability assay.

COR-L88 = type: functional, cell-based;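 also: growth inhibition of COR-L88 cells, read out with a cell viability assay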
Description: SANGER: Inhibition of human COR-L88 cell growth in a cell viability assay.

BT-474 = type: functional, cell-based
Description: SANGER: Inhibition of human BT-474 cell growth in a cell viability assay.

KY821 = type: functional, cell-based;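 also: growth inhibition of human KY821 cells, read out by a cell viability assay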
Description: SANGER: Inhibition of human KY821 cell growth in a cell viability assay.

LS-513 = type: functional, cell-based
Description: SANGER: Inhibition of human LS-513 cell growth in a cell viability assay.

MHH-NB-11 = type: functional, cell-based;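 also: growth inhibition of human MHH-NB-11 cells, read out by a cell viability assay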
Description: SANGER: Inhibition of human MHH-NB-11 cell growth in a cell viability assay.

LXF-289 cell line = type: functional, cell-based
Description: SANGER: Inhibition of human LXF-289 cell growth in a cell viability assay.

OVCAR-4 = type: functional, cell-based;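 also: growth inhibition of human OVCAR-4 cells, measured with a cell viability assay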
Description: SANGER: Inhibition of human OVCAR-4 cell growth in a cell viability assay.

CP66-MEL = type: functional, cell-based;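 also: growth inhibition of CP66-MEL cells determined in a cell viability assay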
Description: SANGER: Inhibition of human CP66-MEL cell growth in a cell viability assay.

LNCaP-Clone-FGC = type: functional, cell-based
Description: SANGER: Inhibition of human LNCaP-Clone-FGC cell growth in a cell viability assay.

BV-173 = type: functional, cell-based
Description: SANGER: Inhibition of human BV-173 cell growth in a cell viability assay.

LB831-BLC = type: functional, cell-based;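 also: growth inhibition of LB831-BLC cells, read out with a cell viability assay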
Description: SANGER: Inhibition of human LB831-BLC cell growth in a cell viability assay.

CW-2 = type: functional, cell-based;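 also: growth inhibition of CW-2 cells, read out by a cell viability assay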
Description: SANGER: Inhibition of human CW-2 cell growth in a cell viability assay.

NB6 = type: functional, cell-based;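 also: growth inhibition of NB6 cells, read out by a cell viability assay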
Description: SANGER: Inhibition of human NB6 cell growth in a cell viability assay.

ALL-PO = type: functional, cell-based;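 also: growth inhibition of ALL-PO cells, read out by a cell viability assay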
Description: SANGER: Inhibition of human ALL-PO cell growth in a cell viability assay.

COLO-668 = type: functional, cell-based
Description: SANGER: Inhibition of human COLO-668 cell growth in a cell viability assay.

Mo = type: functional, cell-based
Description: SANGER: Inhibition of human Mo-T cell growth in a cell viability assay.

COLO-684 = type: functional, cell-based
Description: SANGER: Inhibition of human COLO-684 cell growth in a cell viability assay.

OCUB-M = type: functional, cell-based;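 also: growth inhibition of the cancer cell line, read out through a cell viability assay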
Description: SANGER: Inhibition of human OCUB-M cell growth in a cell viability assay.

TGBC24TKB = type: functional, cell-based;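 also: growth inhibition of human TGBC24TKB cells, read out with a cell viability assay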
Description: SANGER: Inhibition of human TGBC24TKB cell growth in a cell viability assay.

HAL-01 = type: functional, cell-based;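 also: growth inhibition of human HAL-01 cells, read out with a cell viability assay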
Description: SANGER: Inhibition of human HAL-01 cell growth in a cell viability assay.

TE-1 = type: functional, cell-based;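 also: growth inhibition of the human TE-1 cell line, read out with a cell viability assay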
Description: SANGER: Inhibition of human TE-1 cell growth in a cell viability assay.

SW 962 = type: functional, cell-based;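 also: growth inhibition of human SW962 cells, read out by a cell viability assay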
Description: SANGER: Inhibition of human SW962 cell growth in a cell viability assay.

SW684 = type: functional, cell-based;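 also: growth inhibition of human SW684 cells, measured by a cell viability assay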
Description: SANGER: Inhibition of human SW684 cell growth in a cell viability assay.

NCI-H526 = type: functional, cell-based;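 also: growth inhibition of the human NCI-H526 cell line, measured by a cell viability assay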
Description: SANGER: Inhibition of human NCI-H526 cell growth in a cell viability assay.

HL-60 = type: functional, cell-based;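 also: growth inhibition of human HL-60 cells, read out with a cell viability assay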
Description: SANGER: Inhibition of human HL-60 cell growth in a cell viability assay.

C/C(O)=C(\C#N)C(=O)Nc1cc(Br)ccc1Br
IC50 (KE-37): > 16000 nM
IC50 (KARPAS-299): > 16000 nM
IC50 (GI-ME-N): > 16000 nM
IC50 (L-428): > 16000 nM
IC50 (C2BBe1): > 16000 nM
IC50 (NH-12): > 16000 nM
IC50 (MPP-89): > 16000 nM
IC50 (DSH1): > 16000 nM
IC50 (A498): > 16000 nM
IC50 (EKVX): > 16000 nM
IC50 (LB1047-RCC): > 16000 nM
IC50 (NCI-H1355): > 16000 nM
IC50 (NCI-H510A): > 16000 nM
IC50 (EW-3): > 16000 nM
IC50 (BB30-HNC): > 16000 nM
IC50 (RH-1): > 16000 nM
IC50 (SK-UT-1): > 16000 nM
IC50 (D-263MG): > 16000 nM
IC50 (NKM-1): > 16000 nM
IC50 (EW-18): > 16000 nM
IC50 (D283 Med): > 16000 nM
IC50 (COLO-320-HSR): > 16000 nM
IC50 (NCI-H1650): > 16000 nM
IC50 (Lu-65): > 16000 nM
IC50 (TE-8): > 16000 nM
IC50 (NB10): > 16000 nM
IC50 (LB771-HNC): > 16000 nM
IC50 (IST-MES1): > 16000 nM
IC50 (LU-134-A): > 16000 nM
IC50 (COLO-829): > 16000 nM
IC50 (NCI-H1092): > 16000 nM
IC50 (JAR): > 16000 nM
IC50 (LB373-MEL-D): > 16000 nM
IC50 (SHP77): > 16000 nM
IC50 (MSTO-211H): > 16000 nM
IC50 (EW-11): > 16000 nM
IC50 (COLO-800): > 16000 nM
IC50 (BB49-HNC): > 16000 nM
IC50 (LS-411N): > 16000 nM
IC50 (HuTu80): > 16000 nM
IC50 (COR-L88): > 16000 nM
IC50 (BT-474): > 16000 nM
IC50 (KY821): > 16000 nM
IC50 (LS-513): > 16000 nM
IC50 (MHH-NB-11): > 16000 nM
IC50 (LXF-289 cell line): > 16000 nM
IC50 (OVCAR-4): > 16000 nM
IC50 (CP66-MEL): > 16000 nM
IC50 (LNCaP-Clone-FGC): > 16000 nM
IC50 (BV-173): > 16000 nM
IC50 (LB831-BLC): > 16000 nM
IC50 (CW-2): > 16000 nM
IC50 (NB6): > 16000 nM
IC50 (ALL-PO): > 16000 nM
IC50 (COLO-668): > 16000 nM
IC50 (Mo): > 16000 nM
IC50 (COLO-684): > 16000 nM
IC50 (OCUB-M): > 16000 nM
IC50 (TGBC24TKB): > 16000 nM
IC50 (HAL-01): > 16000 nM
IC50 (TE-1): > 16000 nM
IC50 (SW 962): > 16000 nM
IC50 (SW684): > 16000 nM
IC50 (NCI-H526): > 16000 nM
IC50 (HL-60): > 16000 nM

Cc1n[nH]c2ccc(-c3cncc(OC[C@@H](N)Cc4c[nH]c5ccccc45)c3)cc12 [A-443654]
IC50 (KE-37): 110 nM
IC50 (KARPAS-299): 473 nM
IC50 (GI-ME-N): 278 nM
IC50 (L-428): > 1020 nM
IC50 (C2BBe1): > 1020 nM
IC50 (NH-12): > 1020 nM
IC50 (MPP-89): 485 nM
IC50 (DSH1): 361 nM
IC50 (A498): > 1020 nM
IC50 (EKVX): > 1020 nM
IC50 (LB1047-RCC): 87.2 nM
IC50 (NCI-H1355): 113 nM
IC50 (NCI-H510A): 229 nM
IC50 (EW-3): > 1020 nM
IC50 (BB30-HNC): 220 nM
IC50 (RH-1): > 1020 nM
IC50 (SK-UT-1): 81.4 nM
IC50 (D-263MG): > 1020 nM
IC50 (NKM-1): > 1020 nM
IC50 (EW-18): > 1020 nM
IC50 (D283 Med): > 1020 nM
IC50 (COLO-320-HSR): 937 nM
IC50 (NCI-H1650): > 1020 nM
IC50 (Lu-65): > 1020 nM
IC50 (TE-8): 137 nM
IC50 (NB10): > 1020 nM
IC50 (LB771-HNC): 222 nM
IC50 (IST-MES1): > 1020 nM
IC50 (LU-134-A): 363 nM
IC50 (COLO-829): > 1020 nM
IC50 (NCI-H1092): 938 nM
IC50 (JAR): 156 nM
IC50 (LB373-MEL-D): 531 nM
IC50 (SHP77): > 1020 nM
IC50 (MSTO-211H): > 1020 nM
IC50 (EW-11): > 1020 nM
IC50 (COLO-800): > 1020 nM
IC50 (BB49-HNC): > 1020 nM
IC50 (LS-411N): 87.5 nM
IC50 (HuTu80): 114 nM
IC50 (COR-L88): 738 nM
IC50 (BT-474): 584 nM
IC50 (KY821): 246 nM
IC50 (LS-513): > 1020 nM
IC50 (MHH-NB-11): > 1020 nM
IC50 (LXF-289 cell line): 179 nM
IC50 (OVCAR-4): 243 nM
IC50 (CP66-MEL): 459 nM
IC50 (LNCaP-Clone-FGC): > 1020 nM
IC50 (BV-173): 269 nM
IC50 (LB831-BLC): 194 nM
IC50 (CW-2): > 1020 nM
IC50 (NB6): 480 nM
IC50 (ALL-PO): 797 nM
IC50 (COLO-668): 405 nM
IC50 (Mo): > 1020 nM
IC50 (COLO-684): 79.5 nM
IC50 (OCUB-M): 25.7 nM
IC50 (TGBC24TKB): 810 nM
IC50 (HAL-01): > 1020 nM
IC50 (TE-1): 111 nM
IC50 (SW 962): 255 nM
IC50 (SW684): > 1020 nM
IC50 (NCI-H526): > 1020 nM
IC50 (HL-60): 500 nM
